Read-outs that look alike come from different tables or passages of the source.
Assays:
[1] = system: AML patient's PBMC; experiment: Incubation of AML patient's PBMC with CA, viable cell count; type: cell-based, human
Procedure: Whole blood (10 ml each) was drawn from previously diagnosed myeloid leukemic patients, one patient was diagnosed as AML and the other one was diagnosed as CML. Mononuclear cells were separated by Ficoll/hypaque density gradient centrifugation. PBMC (1×10^5-2×10^6/ml) of myeloid leukemia patients were incubated with varied concentrations of CA for 48 hours at 37° C. in 5% CO2. Cells were then washed and counted for viability.

[2] = system: CML patient's PBMC; experiment: Incubation of CML patient's PBMC (leukemic cells) with CA/PCQ, viable cell count; type: cell-based, human
Procedure: Whole blood (10 ml each) was drawn from previously diagnosed myeloid leukemic patients, one patient was diagnosed as AML and the other one was diagnosed as CML. Mononuclear cells were separated by Ficoll/hypaque density gradient centrifugation. […] Cells were then washed and counted for viability.

[3] = system: Promonocytic cell line (U937); experiment: Incubation of CD33+ promonocytic cell line U937 with CA/PCQ, viable cell count; type: cell-based; details: Homo sapiens; for inhibition at 25 µg/mL: U937, 25.0 μg/ml; for inhibition at 50 µg/mL: U937, 50.0 μg/ml; for inhibition at 100 µg/mL: U937, 100.0 μg/ml
Procedure: Culture of Promonocytic cell line U937. […] This cell line is CD33^+. Incubation of CD33^+ cell line U937 with CA. […] Cells were then washed and counted for viability.

[4] = U-937, 24 h, 1 day, 1 × 10^5 cells per ml per well, read-out: Percentage inhibition of Cell Growth
[5] = U-937, 48 h, 2 days, 1 × 10^5 cells per ml per well, read-out: Percentage inhibition of Cell Growth
[6] = U-937, 72 h, 3 days, 1 × 10^5 cells per ml per well, read-out: Percentage inhibition of Cell Growth
[7] = U-937, 72 h, 3 days, 2×10^5 cells per ml per well, read-out: % Inhibition of cell growth (After 3 days of incubation)

O=C(/C=C/c1ccc(O)c(O)c1)O[C@@H]1C[C@](O)(C(=O)O)C[C@@H](O)[C@H]1O (single isomer, unassigned) [CA, chlorogenic acid or 3-Caffeoyl quinic acid]
inhibition at 20 µg/mL ([1]; Homo sapiens, AML patient's PBMC, 20 μg/ml, 48 hr, 1 × 10^5 cells/ml/well, read-out: Percent inhibition of cell growth after 48 hr of incubation): 9.5%
inhibition at 50 µg/mL ([1]; Homo sapiens, AML patient's PBMC, 50 μg/ml, 48 hr, 1 × 10^5 cells/ml/well, read-out: Percent inhibition of cell growth after 48 hr of incubation): 16.6%
inhibition at 100 µg/mL ([1]; Homo sapiens, AML patient's PBMC, 100 μg/ml, 48 hr, 1 × 10^5 cells/ml/well, read-out: Percent inhibition of cell growth after 48 hr of incubation): 73.8%
inhibition at 500 µg/mL ([1]; Homo sapiens, AML patient's PBMC, 500 μg/ml, 48 hr, 1 × 10^5 cells/ml/well, read-out: Percent inhibition of cell growth after 48 hr of incubation): 85.7%
destruction of cells (in words) ([1]; PBMC of myeloid leukemia patients (AML)): destroyed
growth inhibition of leukemic cell lines ([2]; CML leukemic cells, 2×10^6/ml/well, 25 μg/ml of CA): up to 2.38
destruction of cells (in words) ([2]; CML patient's leukemic cells): destroyed
inhibition at 50 µg/mL ([2]; Homo sapiens, 24 h, CML patient's PBMC, 50.0 μg/ml, 1 day, 1 × 10^5 cells per ml per well, read-out: Percentage inhibition of Cell Growth): 4.76%
inhibition at 100 µg/mL ([2]; Homo sapiens, 24 h, CML patient's PBMC, 100.0 μg/ml, 1 day, 1 × 10^5 cells per ml per well, read-out: Percentage inhibition of Cell Growth): 9.52%
inhibition at 50 µg/mL ([2]; Homo sapiens, 48 h, CML patient's PBMC, 50.0 μg/ml, 2 days, 1 × 10^5 cells per ml per well, read-out: Percentage inhibition of Cell Growth): 22.2%
inhibition at 100 µg/mL ([2]; Homo sapiens, 48 h, CML patient's PBMC, 100.0 μg/ml, 2 days, 1 × 10^5 cells per ml per well, read-out: Percentage inhibition of Cell Growth): 45%
inhibition at 50 µg/mL ([2]; Homo sapiens, 72 h, CML patient's PBMC, 50.0 μg/ml, 3 days, 1 × 10^5 cells per ml per well, read-out: Percentage inhibition of Cell Growth): 30%
inhibition at 100 µg/mL ([2]; Homo sapiens, 72 h, CML patient's PBMC, 100.0 μg/ml, 3 days, 1 × 10^5 cells per ml per well, read-out: Percentage inhibition of Cell Growth): 55.6%
inhibition at 25 µg/mL ([2]; Homo sapiens, PBMC, 72 h, CML patient's leukemic cells, 25.0 μg/ml, 3 days, 2×10^5 cells per ml per well, read-out: % Inhibition of cell growth (After 3 days of incubation)): 2.38%
inhibition at 50 µg/mL ([2]; Homo sapiens, PBMC, 72 h, CML patient's leukemic cells, 50.0 μg/ml, 3 days, 2×10^5 cells per ml per well, read-out: % Inhibition of cell growth (After 3 days of incubation)): 4.67%
inhibition at 20 µg/mL ([2]; Homo sapiens, CML patient's PBMC, 20 μg/ml, 48 hr, 1 × 10^5 cells/ml/well, read-out: Percent inhibition of cell growth after 48 hr of incubation): 5.8%
inhibition at 50 µg/mL ([2]; Homo sapiens, CML patient's PBMC, 50 μg/ml, 48 hr, 1 × 10^5 cells/ml/well, read-out: Percent inhibition of cell growth after 48 hr of incubation): 10.3%
inhibition at 100 µg/mL ([2]; Homo sapiens, CML patient's PBMC, 100 μg/ml, 48 hr, 1 × 10^5 cells/ml/well, read-out: Percent inhibition of cell growth after 48 hr of incubation): 22.5%
inhibition at 500 µg/mL ([2]; Homo sapiens, CML patient's PBMC, 500 μg/ml, 48 hr, 1 × 10^5 cells/ml/well, read-out: Percent inhibition of cell growth after 48 hr of incubation): 32.3%
inhibition at 10 µg/mL ([3]; U-937, 24 h, U937, 10.0 μg/ml, 1 day, 1 × 10^5 cells per ml per well, read-out: Percentage inhibition of Cell Growth): 8.33%
inhibition at 25 µg/mL [3, 4]: 16.7%
inhibition at 50 µg/mL [3, 4]: 25%
inhibition at 100 µg/mL [3, 4]: 45.8%
inhibition at 10 µg/mL ([3]; U-937, 48 h, U937, 10.0 μg/ml, 2 days, 1 × 10^5 cells per ml per well, read-out: Percentage inhibition of Cell Growth): 44%
inhibition at 25 µg/mL [3, 5]: 52%
inhibition at 50 µg/mL [3, 5]: 64%
inhibition at 100 µg/mL [3, 5]: 96%
inhibition at 10 µg/mL ([3]; U-937, 72 h, U937, 10.0 μg/ml, 3 days, 1 × 10^5 cells per ml per well, read-out: Percentage inhibition of Cell Growth): 57.1%
inhibition at 25 µg/mL [3, 6]: 71.4%
inhibition at 25 µg/mL [3, 7]: 16.7%
inhibition at 50 µg/mL [3, 6]: 89.3%
inhibition at 50 µg/mL [3, 7]: 25%
inhibition at 100 µg/mL [3, 6]: 100%
inhibition at 10 µg/mL ([3]; U-937, U937, 10 μg/ml, 48 hr, 1 × 10^5 cells/ml/well, read-out: Percent inhibition of cell growth after 48 hr of incubation): 25%
inhibition at 15 µg/mL ([3]; U-937, U937, 15 μg/ml, 48 hr, 1 × 10^5 cells/ml/well, read-out: Percent inhibition of cell growth after 48 hr of incubation): 43.7%

Reference: patent publication US20030229140A1, “Herbal molecule as potential anti-leukemic drug” (priority 2002, published 2003)
